Two substances from US20140303116A1, “CARNOSINE HYALURONIC ACID MIXTURES AND THEIR USE” (priority 2010, published 2014) can be followed below.

The subject of experiment [1] is collagen III. Nature of the experiment: collagen III expression in fibroblasts by Western blotting. Format: cell-based. To be noted: fibroblasts exposed to 1.0 and 1.5% for 48 hours, beta-actin internal control. How it is done:
The effect of solutions diluted to 1% and 1.5% and neutralized according to Example 4 on the production of collagen by fibroblasts treated with these solutions was verified.
The Western blotting technique was used to verify any production of collagen by the fibroblasts treated with L- and D-carnosine hyaluronate for 48 hours.
Fibroblast cultures were lysed with RIPA buffer at pH 7.4. Then, the samples were run onto a 10% SDS-polyacrylamide gel under reducing conditions. When the run has been completed, the proteins were transferred onto nitrocellulose membranes, incubated with anti-collagen III antibodies and then with the secondary antibody. […] The beta-actin expression was used as an internal control.
(In general: In western blotting, separated proteins are transferred to a membrane and probed.)

For experiment [2], the system named is skin fibroblasts. Nature of the experiment: scratch assay, migration of skin fibroblasts. Format: cell-based. The note with it: 48 hours of treatment after scratching; doses of between 0.2 and 0.8%; mitomycin C pre-treated cells, DMEM with 10% FCS. How it is done: The solutions obtained from Examples 2 and 3 were used to prepare dilute […], and these solutions, whose pH initially changed from 3 to 1.5, were neutralized by the addition of NaOH.
The effect of the above solutions on the migration of skin fibroblasts was tested in vitro by means of a scratch assay. In this test, cells mimic cell migration during an in vivo tissue repair.
The method is based on scratch-wounding a confluent monolayer of cells so that the cells capable of migration are stimulated to cover the artificial gap in an attempt to re-establish new cell-to-cell contacts. […]
In this assay, the fibroblasts were scratch-wounded and then treated with the test substances at different concentrations. At 48 hours after treatment, cells were photographed and stained with crystal violet, and the migrated cells were counted under an optical microscope. […]
Cells were cultivated in DMEM with 10% FCS and treated with the dilute solutions of L-carnosine hyaluronate as described above for 48 hours after scratching. […] Cells were counted after staining with crystal violet.
Cells were cultivated in DMEM with 10% FCS and treated with the dilute solutions of D-carnosine hyaluronate as described above for 48 hours after scratching. […] Cells were counted after staining with crystal violet.

As to D-carnosine hyaluronate, the “collagen III synthesis vs control cells treated with saline” value in experiment [1] is recorded as “synthesize more collagen III than control cells”. For the same substance, in experiment [2], the “migration of skin fibroblasts (migrated cell count)” value is given as “statistically significantly migrate”.
For the substance L-carnosine hyaluronate, the “collagen III synthesis vs control cells treated with saline” value in experiment [1] was “synthesize more collagen III than control cells”. Further, in experiment [2], the “migration of skin fibroblasts (migrated cell count)” value is reported as “statistically significantly migrate”.
